{"source": "patent US20110256147A1", "about": "“DIAGNOSTIC AND TREATMENT METHODS FOR CANCER BASED ON IMMUNE INHIBITORS” (THE JOHNS HOPKINS UNIVERSITY, priority 2008, published 2011)", "test_system": "CD1d-mediated activation of NKT cells", "assay": "CD1d-mediated activation of a panel of NKT cell hybridomas by pretreated LCD1dwt cells, IL-2 ELISA", "type": "cell-based, mouse", "details": "LCD1dwt cells treated 4 h; DN32.D3, N37-1A12, N38-3C3", "protocol": "FIG. 2. […] LCD1dwt cells were treated with 1 ml media containing 5% FBS, FBS, human AB serum or serum from the indicated patients for 3-4 h, washed extensively and then co-cultured with N37-1A12 and N38-3C3 NKT cell hybridomas. IL-2 was measured by standard cytokine ELISA, and data is shown as percent control, normalized to cells treated with culture media as 100% or the maximum level of stimulation.\nFIG. 4. Treatment with ovarian cancer associated ascites has no effect on HLA-A2 mediated antigen presentation. […] IFN-γ released was measured by ELISA. […] NKT cell recognition of CD1d was assessed by measuring IL-2 production in the supernatants by ELISA.\nFIG. 5. […] NKT cell recognition of CD1d1 was assessed by measuring IL-2 production in the supernatants by ELISA. […]\nFIG. 6. […] IL-2 was measured, as an indication of NKT cell activation, by standard cytokine ELISA. […] NKT cell recognition of CD was assessed by measuring IL-2 production in the supernatants by ELISA. […]\nFIG. 7. […] (A) IL-2 was measured, or GM-CSF (B) as an indication of NKT cell activation, by standard cytokine ELISA. […] The extracted lipids were analyzed by thin-layer chromatography (TLC) (HPTLC Silica Gel 60; Merck, Darmstadt, Germany) with chloroform-methanol-0.25% aqueous KCl (60:35:8) as running solvent. Gangliosides were detected with a resorcinol—HCl Cu2+ reagent. […]"}
{"substance": "GT1b", "values": [{"measurement": "CD1d-mediated activation of NKT cells, increasing doses of ganglioside", "result": "did not inhibit"}]}
